Assays:
Assay type in all cases: in vivo
[1] = system: barnyardgrass (Echinochloa crus-galli); assay: Test G Post-Emergence Protocol; settings: Echinochloa crus-galli, post-emergence, 312 h; for pest or weed control at 15.625 g/ha: 15.625 g ai/ha, evaluated after 13 days (100=total damage to plant; 0=no damage to plant), read-out: Barnyardgrass damage rating; for pest or weed control at 62.5 g/ha: 62.5 g ai/ha, read-out: Barnyardgrass damage rating (100=total damage to plant; 0=no damage to plant); for pest or weed control at 62.5 g/ha / pest or weed control at 250 g/ha: evaluated after 13 days; for pest or weed control at 250 g/ha: 250 g ai/ha, read-out: damage to plant, Barnyardgrass (100=total damage to plant; 0=no damage to plant)
Method in brief: (§1)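 Pot-grown seedlings, 8 days old, raised in a glasshouse at 24/16 °C day/night with 14 h light and 65% humidity, were sprayed post-emergence with test compound in acetone/water (50:50) plus 0.5% Tween 20 at 15.625, 62.5 or 250 g/ha. Damage was scored visually 13 days later on a 0–100 scale (100 = total damage).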

[2] = system: giant foxtail (Setaria faberi); assay: Test G Post-Emergence Protocol; settings: Setaria faberi, post-emergence, 312 h; for pest or weed control at 15.625 g/ha: 15.625 g ai/ha, evaluated after 13 days (100=total damage to plant; 0=no damage to plant), read-out: Foxtail, Giant damage rating; for pest or weed control at 62.5 g/ha: 62.5 g ai/ha, read-out: Foxtail, Giant damage rating (100=total damage to plant; 0=no damage to plant); for pest or weed control at 62.5 g/ha / pest or weed control at 250 g/ha: evaluated after 13 days; for pest or weed control at 250 g/ha: 250 g ai/ha, read-out: damage to plant, Foxtail, Giant (100=total damage to plant; 0=no damage to plant)
Method in brief: as §1

[3] = system: redroot pigweed (Amaranthus retroflexus); assay: Test G Post-Emergence Protocol; settings: Amaranthus retroflexus, post-emergence, 312 h; for pest or weed control at 15.625 g/ha: 15.625 g ai/ha, evaluated after 13 days (100=total damage to plant; 0=no damage to plant), read-out: Pigweed, Redroot damage rating; for pest or weed control at 62.5 g/ha: 62.5 g ai/ha, read-out: Pigweed, Redroot damage rating (100=total damage to plant; 0=no damage to plant); for pest or weed control at 62.5 g/ha / pest or weed control at 250 g/ha: evaluated after 13 days; for pest or weed control at 250 g/ha: 250 g ai/ha, read-out: damage to plant, Pigweed, Redroot (100=total damage to plant; 0=no damage to plant)
Method in brief: as §1

[4] = system: corn (Zea mays); assay: Test G Post-Emergence Protocol; settings: Zea mays, post-emergence, 312 h; for plant injury at 15.625 g/ha: 15.625 g ai/ha, evaluated after 13 days (100=total damage to plant; 0=no damage to plant), read-out: Corn damage rating; for plant injury at 62.5 g/ha: 62.5 g ai/ha, read-out: Corn damage rating (100=total damage to plant; 0=no damage to plant); for plant injury at 62.5 g/ha / plant injury at 250 g/ha: evaluated after 13 days; for plant injury at 250 g/ha: 250 g ai/ha, read-out: damage to plant, Corn (100=total damage to plant; 0=no damage to plant)
Method in brief: as §1

[5] = system: ivy-leaved morning glory (Ipomoea hederacea); assay: Test G Post-Emergence Protocol; settings: Ipomoea, post-emergence, 312 h; for pest or weed control at 15.625 g/ha: 15.625 g ai/ha, evaluated after 13 days (100=total damage to plant; 0=no damage to plant), read-out: Morningglory, Ivy-leaved damage rating; for pest or weed control at 62.5 g/ha: 62.5 g ai/ha, read-out: Morningglory, Ivy-leaved damage rating (100=total damage to plant; 0=no damage to plant); for pest or weed control at 62.5 g/ha / pest or weed control at 250 g/ha: evaluated after 13 days; for pest or weed control at 250 g/ha: 250 g ai/ha, read-out: damage to plant, Morningglory, Ivy-leaved (100=total damage to plant; 0=no damage to plant)
Method in brief: as §1

[6] = system: velvetleaf (Abutilon theophrasti); assay: Test G Post-Emergence Protocol; settings: Abutilon theophrasti, post-emergence, 312 h; for pest or weed control at 15.625 g/ha: 15.625 g ai/ha, evaluated after 13 days (100=total damage to plant; 0=no damage to plant), read-out: Velvetleaf damage rating; for pest or weed control at 62.5 g/ha: 62.5 g ai/ha, read-out: Velvetleaf damage rating (100=total damage to plant; 0=no damage to plant); for pest or weed control at 62.5 g/ha / pest or weed control at 250 g/ha: evaluated after 13 days; for pest or weed control at 250 g/ha: 250 g ai/ha, read-out: damage to plant, Velvetleaf (100=total damage to plant; 0=no damage to plant)
Method in brief: as §1

[7] = system: barnyardgrass (Echinochloa crus-galli); assay: Test G Pre-Emergence Protocol; settings: Echinochloa crus-galli, pre-emergence, 312 h, evaluated after 13 days; for pest or weed control at 15.625 g/ha: 15.625 g ai/ha, read-out: Barnyard grass damage rating (100=total damage to plant; 0=no damage to plant); for pest or weed control at 62.5 g/ha: 62.5 g ai/ha, 100=total damage to plant, 0=no damage to plant, read-out: plant damage rating, Barnyardgrass; for pest or weed control at 250 g/ha: 250 g ai/ha, read-out: Barnyardgrass damage rating (100=total damage to plant; 0=no damage to plant)
Method in brief: (§2)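 Glasshouse pre-emergence test: soil-sown seeds, sprayed after 1 d at 15.625, 62.5 or 250 g/ha. Conditions 24/16° C day/night, 14 h light, 65% humidity, watering twice daily. Rating 13 d post-spray (100 = total damage).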

[8] = system: giant foxtail (Setaria faberi); assay: Test G Pre-Emergence Protocol; settings: Setaria faberi, pre-emergence, 312 h, evaluated after 13 days; for pest or weed control at 15.625 g/ha: 15.625 g ai/ha; for pest or weed control at 15.625 g/ha / pest or weed control at 250 g/ha: read-out: Foxtail, Giant damage rating (100=total damage to plant; 0=no damage to plant); for pest or weed control at 62.5 g/ha: 62.5 g ai/ha, 100=total damage to plant, 0=no damage to plant, read-out: plant damage rating, Foxtail, Giant; for pest or weed control at 250 g/ha: 250 g ai/ha
Method in brief: as §2

[9] = system: redroot pigweed (Amaranthus retroflexus); assay: Test G Pre-Emergence Protocol; settings: Amaranthus retroflexus, pre-emergence, 312 h, evaluated after 13 days; for pest or weed control at 15.625 g/ha: 15.625 g ai/ha; for pest or weed control at 15.625 g/ha / pest or weed control at 250 g/ha: read-out: Pigweed, Redroot damage rating (100=total damage to plant; 0=no damage to plant); for pest or weed control at 62.5 g/ha: 62.5 g ai/ha, 100=total damage to plant, 0=no damage to plant, read-out: plant damage rating, Pigweed, Redroot; for pest or weed control at 250 g/ha: 250 g ai/ha
Method in brief: as §2

[10] = system: corn (Zea mays); assay: Test G Pre-Emergence Protocol; settings: Zea mays, pre-emergence, 312 h, evaluated after 13 days; for plant injury at 15.625 g/ha: 15.625 g ai/ha; for plant injury at 15.625 g/ha / plant injury at 250 g/ha: read-out: Corn damage rating (100=total damage to plant; 0=no damage to plant); for plant injury at 62.5 g/ha: 62.5 g ai/ha, 100=total damage to plant, 0=no damage to plant, read-out: plant damage rating, Corn; for plant injury at 250 g/ha: 250 g ai/ha
Method in brief: as §2

[11] = system: ivy-leaved morning glory (Ipomoea hederacea); assay: Test G Pre-Emergence Protocol; settings: Ipomoea, pre-emergence, 312 h, evaluated after 13 days; for pest or weed control at 15.625 g/ha: 15.625 g ai/ha, read-out: Morning-glory, Ivy-leaved damage rating (100=total damage to plant; 0=no damage to plant); for pest or weed control at 62.5 g/ha: 62.5 g ai/ha, 100=total damage to plant, 0=no damage to plant, read-out: plant damage rating, Morningglory, Ivy-leaved; for pest or weed control at 250 g/ha: 250 g ai/ha, read-out: Morningglory, Ivy-leaved damage rating (100=total damage to plant; 0=no damage to plant)
Method in brief: as §2

[12] = system: velvetleaf (Abutilon theophrasti); assay: Test G Pre-Emergence Protocol; settings: Abutilon theophrasti, pre-emergence, 312 h, evaluated after 13 days; for pest or weed control at 15.625 g/ha: 15.625 g ai/ha; for pest or weed control at 15.625 g/ha / pest or weed control at 250 g/ha: read-out: Velvetleaf damage rating (100=total damage to plant; 0=no damage to plant); for pest or weed control at 62.5 g/ha: 62.5 g ai/ha, 100=total damage to plant, 0=no damage to plant, read-out: plant damage rating, Velvetleaf; for pest or weed control at 250 g/ha: 250 g ai/ha
Method in brief: as §2

Structure (SMILES) | pest or weed control at 15.625 g/ha [1] [%] | pest or weed control at 62.5 g/ha [1] [%] | pest or weed control at 250 g/ha [1] [%] | pest or weed control at 15.625 g/ha [2] [%] | pest or weed control at 62.5 g/ha [2] [%] | pest or weed control at 250 g/ha [2] [%] | pest or weed control at 15.625 g/ha [3] [%] | pest or weed control at 62.5 g/ha [3] [%] | pest or weed control at 250 g/ha [3] [%] | plant injury at 15.625 g/ha [4] [%] | plant injury at 62.5 g/ha [4] [%] | plant injury at 250 g/ha [4] [%] | pest or weed control at 15.625 g/ha [5] [%] | pest or weed control at 62.5 g/ha [5] [%] | pest or weed control at 250 g/ha [5] [%] | pest or weed control at 15.625 g/ha [6] [%] | pest or weed control at 62.5 g/ha [6] [%] | pest or weed control at 250 g/ha [6] [%] | pest or weed control at 15.625 g/ha [7] [%] | pest or weed control at 62.5 g/ha [7] [%] | also measured
CC(C)c1cc(NC(=O)[C@@H]2C(=O)N(C)C[C@H]2c2ccc(C(F)(F)F)cc2)[nH]n1 (racemic) [Compound 1522] | 0 | 0 | 0 | 0 | 0 | 0 | 0 | 0 | 0 | 0 | 10 | 10 | 0 | 0 | 0 | 0 | 0 | 0 | 0 | 0 | pest or weed control at 250 g/ha [7]: 0%; pest or weed control at 15.625 g/ha [8]: 0%; pest or weed control at 62.5 g/ha [8]: 0%; pest or weed control at 250 g/ha [8]: 0%; pest or weed control at 15.625 g/ha [9]: 0%; pest or weed control at 62.5 g/ha [9]: 0%; pest or weed control at 250 g/ha [9]: 0%; plant injury at 15.625 g/ha [10]: 0%; plant injury at 62.5 g/ha [10]: 0%; plant injury at 250 g/ha [10]: 0%; pest or weed control at 15.625 g/ha [11]: 0%; pest or weed control at 62.5 g/ha [11]: 0%; pest or weed control at 250 g/ha [11]: 0%; pest or weed control at 15.625 g/ha [12]: 0%; pest or weed control at 62.5 g/ha [12]: 0%; pest or weed control at 250 g/ha [12]: 0%
CN1C[C@@H](c2ccc(C(F)(F)F)cc2)[C@H](C(=O)Nc2ccc(Cl)nc2)C1=O (racemic) [Compound 1525] | 0 | 0 | 0 | 0 | 0 | 10 | 0 | 0 | 0 | 0 | 0 | 10 | 0 | 0 | 20 | 0 | 0 | 0 | 0 | 0 | pest or weed control at 250 g/ha [7]: 40%; pest or weed control at 15.625 g/ha [8]: 0%; pest or weed control at 62.5 g/ha [8]: 10%; pest or weed control at 250 g/ha [8]: 30%; pest or weed control at 15.625 g/ha [9]: 0%; pest or weed control at 62.5 g/ha [9]: 0%; pest or weed control at 250 g/ha [9]: 0%; plant injury at 15.625 g/ha [10]: 0%; plant injury at 62.5 g/ha [10]: 0%; plant injury at 250 g/ha [10]: 0%; pest or weed control at 15.625 g/ha [11]: 0%; pest or weed control at 62.5 g/ha [11]: 0%; pest or weed control at 250 g/ha [11]: 0%; pest or weed control at 15.625 g/ha [12]: 0%; pest or weed control at 62.5 g/ha [12]: 0%; pest or weed control at 250 g/ha [12]: 0%
